Laboratory results reported in patent publication US20070128217A1 (priority 2003, published 2007).

Columns and labels:
[1] = test system: antibodies in sera from SARS patients (sera 1a, 1b, 2, 6, 37, 62, London, SARS-yellow, SARS-green); assay type: binding, human; design: Binding of serum 6 to linear peptides of protein X1 of SARS-CoV Urbani / Binding of serum 37 to linear peptides of protein X1 of SARS-CoV Urbani / Binding of serum 6 to looped/cyclic peptide (PEPSCAN-ELISA) / Binding of serum 37 to looped/cyclic peptide (PEPSCAN-ELISA) / Binding of serum 37 to looped/cyclic peptides of protein X1 of SARS-CoV Urbani / Binding of serum 6 to linear peptides of protein X2 / Binding of serum 37 to linear peptides of protein X2 / Binding of serum 37 to looped/cyclic peptides of protein X2 of SARS-CoV Urbani / Binding of serum 6 to linear peptides of protein M of SARS-CoV Urbani / Binding of serum 37 to linear peptides of protein M of SARS-CoV Urbani / Binding of serum 6 to looped/cyclic peptides of protein M of SARS-CoV Urbani / Binding of serum 37 to looped/cyclic peptides of protein M of SARS-CoV Urbani / Binding of serum 6 to linear peptides of protein X3 of SARS-CoV Urbani / Binding of serum 37 to linear peptides of protein X3 of SARS-CoV Urbani / Binding of serum 37 to looped/cyclic peptides of protein X3 of SARS-CoV Urbani / Binding of serum 6 to linear peptides of protein X4 of SARS-CoV Urbani / Binding of serum 37 to linear peptides of protein X4 of SARS-CoV Urbani / Binding of serum 37 to looped/cyclic peptides of protein X4 of SARS-CoV Urbani / Binding of serum 6 to linear peptides of protein X5 of SARS-CoV Urbani / Binding of serum 37 to linear peptides of protein X5 of SARS-CoV Urbani / Binding of serum 37 to looped/cyclic peptides of protein X5 of SARS-CoV Urbani / Binding of serum 6 to linear peptides of protein N of SARS-CoV Urbani / Binding of serum 37 to linear peptides of protein N of SARS-CoV Urbani / Binding of serum 6 to linear peptide (PEPSCAN-ELISA) / Binding of serum 1a to looped/cyclic peptides of protein N of SARS-CoV Urbani / Binding of serum 1b to looped/cyclic peptides of protein N of SARS-CoV Urbani / Binding of serum 2 to looped/cyclic peptides of protein N of SARS-CoV Urbani / Binding of serum 6 to looped/cyclic peptides of protein N of SARS-CoV Urbani / Binding of serum 37 to looped/cyclic peptides of protein N of SARS-CoV Urbani / Binding of serum 62 to looped/cyclic peptides of protein N of SARS-CoV Urbani / Binding of serum London to looped/cyclic peptides of protein N of SARS-CoV Urbani / Binding of serum SARS-green to looped/cyclic peptides of protein N of SARS-CoV Urbani: unit not given here
[2] = test system: control sera (pooled serum of ten healthy LUMC hospital workers; commercial negative donor pooled serum from the Dutch bloodbank); assay type: binding, human; design: Binding of Control serum LUMC to linear peptides / Binding of Control serum Blood-bank to linear peptides / Binding of Control serum LUMC to looped peptides / Binding of Control Serum Blood-Bank to Looped peptides / Binding of Control serum LUMC to linear peptides of the protein M of SARS-CoV Urbani / Binding of Control serum Blood-bank to linear peptides of the protein M of SARS-CoV Urbani / Binding of Control serum LUMC to looped peptides of the protein M of SARS-CoV Urbani / Binding of Control Serum Blood-Bank to Looped peptides of the protein M of SARS-CoV Urbani: unit not given here
[3] = test system: rabbit serum obtained by immunizing a rabbit with the SARS-CoV strain Frankfurt 1; assay type: binding; design: Binding of a rabbit serum to linear peptides / Binding of a rabbit serum to looped peptides / Rabbit serum linear peptides / Rabbit serum looped peptides / Binding of a rabbit serum to linear peptides of protein N of SARS-CoV Urbani (Rabbit serum linear peptides) / Binding of a rabbit serum to looped/cyclic peptides of protein N of SARS-CoV Urbani (Rabbit serum looped peptides): unit not given here

Sequence	Binding of serum 1a to linear peptides of protein X2 [1]	Binding of serum 1a to looped/cyclic peptides of protein X2 of SARS-CoV Urbani [1]	Binding of serum 1b to linear peptides of protein X2 [1]	Binding of serum 1b to looped/cyclic peptides of protein X2 of SARS-CoV Urbani [1]	Binding of serum 2 to linear peptides of protein X2 [1]	Binding of serum 2 to looped/cyclic peptides of protein X2 of SARS-CoV Urbani [1]	Binding of serum 6 to linear peptides of protein X2 [1]	Binding of serum 6 to looped/cyclic peptides of protein X2 of SARS-CoV Urbani [1]	Binding of serum 37 to linear peptides of protein X2 [1]	Binding of serum 37 to looped/cyclic peptides of protein X2 of SARS-CoV Urbani [1]	Binding of serum 62 to linear peptides of protein X2 [1]	Binding of serum 62 to looped/cyclic peptides of protein X2 of SARS-CoV Urbani [1]	Binding of serum London to linear peptides of protein X2 [1]	Binding of serum London to looped/cyclic peptides of protein X2 of SARS-CoV Urbani [1]	Binding of serum SARS-green to linear peptides of protein X2 [1]	Binding of serum SARS-green to looped/cyclic peptides of protein X2 of SARS-CoV Urbani [1]	Binding of serum SARS-yellow to linear peptides of protein X2 [1]	Binding of serum SARS-yellow to looped/cyclic peptides of protein X2 of SARS-CoV Urbani [1]	Binding of Control Serum Blood-Bank to Looped peptides [2]	Binding of Control serum Blood-bank to linear peptides [2]	also measured
WIQFMMSRRRLLACL	0.6	0.4	0.4	0.3	0.4	0.1	0.5	0.3	0.5	0.3	0.6	0.3	0.5	0.3	0.5	0.2	0.7	0.4	0.3	0.6	Binding of Control serum LUMC to linear peptides [2]: 0.4; Binding of Control serum LUMC to looped peptides [2]: 0.3; Binding of a rabbit serum to linear peptides [3]: 0.5; Binding of a rabbit serum to looped peptides [3]: 1.3
LRGTIVTRPLMESEL	–	–	–	–	–	–	–	–	–	–	–	–	–	–	–	–	–	–	–	–	Binding of serum 1a to linear peptides of protein M of SARS-CoV Urbani [1]: 0.7; Binding of serum 1b to linear peptides of protein M of SARS-CoV Urbani [1]: 0.5; Binding of serum 2 to linear peptides of protein M of SARS-CoV Urbani [1]: 0.3; Binding of serum 6 to linear peptides of protein M of SARS-CoV Urbani [1]: 0.3; Binding of serum 37 to linear peptides of protein M of SARS-CoV Urbani [1]: 0.5; Binding of serum 62 to linear peptides of protein M of SARS-CoV Urbani [1]: 0.4; Binding of serum London to linear peptides of protein M of SARS-CoV Urbani [1]: 0.3; Binding of serum SARS-green to linear peptides of protein M of SARS-CoV Urbani [1]: 0.4; Binding of serum SARS-yellow to linear peptides of protein M of SARS-CoV Urbani [1]: 1.0; Recognition of the peptide by sera of SARS-CoV infected individuals, and form (linear, looped/cyclic) in which it is recognized [1]: recognized in looped/cyclic form; Binding of Control Serum Blood-Bank to Looped peptides of the protein M of SARS-CoV Urbani [2]: 0.7; Binding of Control serum Blood-bank to linear peptides of the protein M of SARS-CoV Urbani [2]: 0.5; Binding of Control serum LUMC to linear peptides of the protein M of SARS-CoV Urbani [2]: 0.5; Binding of Control serum LUMC to looped peptides of the protein M of SARS-CoV Urbani [2]: 0.7; Rabbit serum linear peptides [3]: 0.0; Rabbit serum looped peptides [3]: 0.5
CKYTQSTALQELLIQ	0.7	0.6	0.5	0.6	0.5	0.5	0.4	0.4	0.7	0.3	0.7	0.4	0.5	0.3	0.7	0.4	0.6	0.3	0.4	0.6	Binding of Control serum LUMC to linear peptides [2]: 0.5; Binding of Control serum LUMC to looped peptides [2]: 0.6; Binding of a rabbit serum to linear peptides [3]: 0.2; Binding of a rabbit serum to looped peptides [3]: 0.2
